Test results: patent US4672066A, “Derivatives of 4-acetyl-3-hydroxy-2-alkyl-phenoxycarboxylic acids” (Hoffmann-La Roche Inc., priority 1985, dated 1987)
Where two headings read alike, the source gives them in different places. Values belong to the compound of their own block, whether it stands above or below them.

What was measured:
PAF [1] = target: T1, PAF (Canis lupus familiaris, UniProt A0A8I3NSH0); assay: PAF Radioreceptor Binding Assay; details: dog platelets, 3H-PAF
T1 construct: followed by 2×10^7 dog platelets; from tissue; host or cells: washed platelets from citrate-treated dog blood
T1 sequence (A0A8I3NSH0 1-343): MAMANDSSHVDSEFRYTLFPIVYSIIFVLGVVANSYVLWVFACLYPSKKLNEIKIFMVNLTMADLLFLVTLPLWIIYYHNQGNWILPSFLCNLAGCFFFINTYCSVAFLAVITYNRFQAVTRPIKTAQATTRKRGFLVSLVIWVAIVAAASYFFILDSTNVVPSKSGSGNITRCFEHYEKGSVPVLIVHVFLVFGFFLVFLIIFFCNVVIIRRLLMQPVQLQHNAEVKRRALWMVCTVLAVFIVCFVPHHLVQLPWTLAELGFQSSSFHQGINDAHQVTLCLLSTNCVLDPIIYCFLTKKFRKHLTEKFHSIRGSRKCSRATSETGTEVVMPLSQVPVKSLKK
Procedure: Platelet rich plasma is prepared by centrifugation of citrate-treated dog blood. Acidification to pH 6.5 with 0.15 M citric acid and centrifugation for 10 minutes at 1000 xg yields a platelet pellet which is then washed by resuspension in EDTA-Phosphate Buffered Saline (PBS) and recentrifuged. The washed platelet preparation is adjusted to 2×10^7 platelets/50 μl in 0.1% BSA-PBS. […] After mixing, incubating for 10 minutes at room temperature, and centrifuging for 1 minute in a Beckman Microfuge B (8000 xg), the pellet is removed by clipping off the tip of the tube, the platelets are solubilized with 200 μl of 50% methanol, and counted in 10 ml of Aquasol. […] Results obtained with representative compounds of the present invention in this assay are summarized hereinafter in Tables I, II and III.

SRS-A = assay: Guinea Pig Ileum, In Vitro (SRS-A antagonism)
Procedure: The guinea pig ileum bioassay system has been described by Orange and Austen, Adv. Immunol. 10: 104-144 ([…]). A 1.5 cm segment is removed from animals weighting 300-400 g. and suspended in an organ bath containing 10 ml. of Tyrodes solution with 10^-6 M atropine sulfate and 10^-6 M pyrilamine maleate. The bath is maintained at 37° C. and aerated with a mixture of 95% oxygen and 5% carbon dioxide. The SRS-A utilized in this screen is obtained by challenging chopped lung fragments from actively sensitized guinea pigs with egg albumin, in vitro. A dose-response curve to SRS-A challenge is established for the ileum. The dose of SRS-A which gives 50% of the maximal contraction (EC50) is then used for subsequent challenge. The drug concentration which inhibits, by 50%, the SRS-A induced constriction of the guinea pig ileum is determined.

TXA2 synthase = target: T2, TXA2 synthase (Homo sapiens, UniProt P24557); assay: Thromboxane Synthase Inhibition, In Vitro; format: biochemical; details: at 1 μM (value in parentheses), human platelet microsomes
T2 construct: microsomal fractions from human platelets as enzyme source; from tissue; host or cells: microsomal fraction of human platelets
T2 sequence (P24557 1-533): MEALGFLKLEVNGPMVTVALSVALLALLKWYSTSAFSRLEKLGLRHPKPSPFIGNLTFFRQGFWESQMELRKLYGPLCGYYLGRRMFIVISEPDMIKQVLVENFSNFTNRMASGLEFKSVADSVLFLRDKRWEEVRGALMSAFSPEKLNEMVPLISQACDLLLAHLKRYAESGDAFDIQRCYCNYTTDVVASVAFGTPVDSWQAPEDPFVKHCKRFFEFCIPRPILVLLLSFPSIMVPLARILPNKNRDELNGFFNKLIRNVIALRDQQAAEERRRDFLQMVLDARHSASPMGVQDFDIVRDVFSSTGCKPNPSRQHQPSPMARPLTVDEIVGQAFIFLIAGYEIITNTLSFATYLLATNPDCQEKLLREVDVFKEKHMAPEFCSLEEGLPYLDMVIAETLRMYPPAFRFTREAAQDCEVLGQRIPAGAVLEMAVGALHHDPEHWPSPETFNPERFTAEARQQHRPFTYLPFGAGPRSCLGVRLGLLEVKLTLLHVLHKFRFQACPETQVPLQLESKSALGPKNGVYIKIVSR
Procedure: TXA2 synthase activity is measured by following the conversion of ^14 C-prostaglandin endoperoxide (PGH2) to ^14 C-thromboxane A2 (TXA2) using microsomal fractions from human platelets as enzyme source. In the aqueous incubation medium, the TXA2 decomposes rapidly into TXB2. The amount of TXA2 synthase is adjusted so that under the conditions of the assay approximately 80-90% of the substrate, PGH2, is converted to product in control tubes. To prepare ^14 C-PGH2, ^14 C-AA (50-60 mCi/mmole; Rose Chem.) is incubated with sheep seminal vesicular gland microsomes for 1.5 minutes at 37° C. and then the ^14 C-PGH2 is extracted with diethylether, purified on columns of Sephadex LH-20 or silicic acid, and stored in acetone at -70° C. Incubations are done as follows. Sufficient ^14 C-PGH2 yield a final substrate concentration of 10 μM (~30,000 cpm) is added to the incubation tubes and then the acetone is removed under nitrogen. […] The tubes are incubated at 22° C. for 2 minutes, the reaction is stopped and then the radioactive products and the unconverted PGH2 are extracted and analyzed by thin layer chromatography. […] The amount of ^14 C-PGH2 converted to products was used as a measure of TXA2 synthase activity. Inhibitors were tested initially at a final concentration of 100 μM. Results obtained with representative compounds of the present invention in this assay are summarized hereafter in Table I, II and III.

LTD4 = assay: Leukotriene D4 (LTD4) Induced Arrhythmia Test; format: in vivo, guinea pig (Hartley); details: 10 mg/kg i.v. 5 min. before LTD4; conscious guinea pigs
Procedure: Male Hartley guinea pigs are anesthetized with sodium pentobarbital and prepared for monitoring direct blood pressure and injecting drugs intravenously by catheterizing the right carotid artery and right jugular vein. Blood pressure, heart rate, and Lead II ECG are monitored in the conscious animal 24 hours later.
Intravenous administration of LTD4 (2.5 pg/kg) is associated with an increase in blood pressure lasting approximately 1-2 minutes followed by a decrease lasting approximately 5-15 minutes (FIG. 3). Abnormal beats consisting of premature ventricular contractions, ST elevation or depression, atrioventricular conduction block, or dissociated p waves begin during the rise in blood pressure; the peak effect occurs approximately 40 seconds after LTD4. The percent of abnormal beats was quantitated by determining the number present during the first 2 minutes after injection and calculating the percent increase above the control level. During the hypotensive response, the animal usually collapses during the 2nd or 3rd minute after LTD4.

PAF [2] = assay: PAF-Induced Guinea Pig Bronchoconstriction Test; format: in vivo, guinea pig (Hartley); details: 1.0 mg/kg i.v., 1 min pretreatment
Procedure: Male guinea pigs (Hartley strain) weighing 300 to 500 g are anesthetized with urethane (2 g/kg) intraperitoneally and a polyethylene cannula is inserted into the jugular vein for drug administration. Tracheal pressure is recorded from a cannula inserted in the trachea and connected to a Statham pressure transducer. Propranolol (0.1 mg/kg) is administered intravenously five minutes before challenge with synthetic PAF, the animals's skeletal muscles are then paralyzed with succinylcholine (1.2 mg/kg i.v.), and the animal is respirated using a Harvard small animal respirator operating at 40 breaths/min and 2.5 cc stroke volume. Under these conditions PAF induces a dose-dependent increase in ventilatory pressure over a dose range of 0.5 to 5 pg/kg i.v. The bronchoconstrictive effect of PAF occurs at approximately a 10-fold lower dose than that obtained with LTE. For screening purposes animals are challenged with a single dose of PAF (10 pg/kg i.v.).
Test compounds are screened by either the intravenous route (1.0 mg/kg i.v., 1 min pretreatment) or oral route (100 mg/kg p.o., 2 hour pretreatment). The peak increase in ventilatory pressure (cm H2 O) is recorded for three control animals and five drug-treated animals and the percent inhibition determined.

[3] = Table II, read-out: SRS Antagonism IC50
[4] = Table II, read-out: TXA2 Synth. Inhib. % at (1μM)
[5] = Table I, read-out: TXA2 Syn. Inhib. (1μM)
[6] = Table III, read-out: TXA2 Synth. Inhib. % at (1 μM)

SMILES: CCCc1c(OCCCC(=O)NCCCCc2cccnc2)ccc(C(C)=O)c1O [drawing 40]
Arrhy's (R/T) (LTD4): 0/3 | decrease in blood pressure (.dwnarw.XABP) (LTD4): -26 ± 8 Δmm Hg | increase in blood pressure (.uparw.XABP) (LTD4): 6 ± 6 Δmm Hg

SMILES: CCCc1c(OCc2cccc(C(=O)NCCCCc3cccnc3)c2OCC)ccc(C(C)=O)c1O [Example 36, 3-[(4-Acetyl-3-hydroxy-2-propylphenoxy)-methyl]-2-ethoxy-[4-(3-pyridinyl)butyl]benzamide]
inhibition of PAF-induced bronchoconstriction (PAF [2]): 96±2%

SMILES: CCCc1c(OCCCCCC(=O)NCCCCc2cccnc2)ccc(C(C)=O)c1O [drawing 39]
Arrhy's (R/T) (LTD4): 0/5 | decrease in blood pressure (.dwnarw.XABP) (LTD4): -16 ± 6 Δmm Hg | increase in blood pressure (.uparw.XABP) (LTD4): 6 ± 3 Δmm Hg

SMILES: CCCc1c(OCC#CCCCC(=O)NCCCCc2cccnc2)ccc(C(C)=O)c1O [drawing 42]
Arrhy's (R/T) (LTD4): 1/3 | decrease in blood pressure (.dwnarw.XABP) (LTD4): -44.5 Δmm Hg | increase in blood pressure (.uparw.XABP) (LTD4): 18 ± 4 Δmm Hg

SMILES: CCCc1c(OCCCCCC(=O)NCCCCCCc2cccnc2)ccc(C(C)=O)c1O [Example 8, 6-(4-Acetyl-3-hydroxy-2-propylphenoxy)-N-[6-(3-pyridinyl)hexyl]hexanamide]
IC50 (PAF [1]; Table I): 1000 nM | inhibition at 1 µM (TXA2 synthase; [5]): 90%

SMILES: CCCc1c(OCCCCCC(=O)NCCCCc2cncnc2)ccc(C(C)=O)c1O [drawing 41]
Arrhy's (R/T) (LTD4): 1/3 | decrease in blood pressure (.dwnarw.XABP) (LTD4): -44 ± 5 Δmm Hg | increase in blood pressure (.uparw.XABP) (LTD4): 32 ± 2 Δmm Hg

SMILES: CCCc1c(OCc2ccc(C(=O)NCCCCc3cccnc3)c(OCC)c2)ccc(C(C)=O)c1O [Example 37, 4-[(4-Acetyl-3-hydroxy-2-propylphenoxy)-methyl]-2-ethoxy-N-[4-(3-pyridinyl)butyl]benzamide]
inhibition of PAF-induced bronchoconstriction (PAF [2]): 96±1%

Now from value to compound, other results behind:

IC50 (PAF [1]; Table II): 600 nM | IC50 (SRS-A; [3]): 700 nM
SMILES: CCCc1c(OCC#CCCCC(=O)NCCCCc2cccnc2)ccc(C(C)=O)c1O [drawing 35]

IC50 (PAF [1]; Table II): 550 nM | inhibition at 1 µM (TXA2 synthase; [4]): 66% | IC50 (SRS-A; [3]): 10000 nM
SMILES: CCCc1c(OCCCCCC(=O)NCCCCc2cncnc2)ccc(C(C)=O)c1O [drawing 31]

IC50 (PAF [1]; Table II): 1000 nM | inhibition at 1 µM (TXA2 synthase; [4]): 35% | IC50 (SRS-A; [3]): 1000 nM
SMILES: CCCc1c(OCCCCCC(=O)NCCSc2cccnc2)ccc(C(C)=O)c1O

IC50 (PAF [1]; Table I): 400 nM | inhibition at 1 µM (TXA2 synthase; [5]): 8%
SMILES: CCCc1c(OCCCC(=O)NCCc2cccnc2)ccc(C(C)=O)c1O [Example 13, 4-(4-Acetyl-3-hydroxy-2-propylphenoxy)-N-[2-(3-pyridinyl)ethyl]butanamide]

IC50 (PAF [1]; Table I): 2000 nM | inhibition at 1 µM (TXA2 synthase; [5]): 78%
SMILES: CCCc1c(OCCCCCC(=O)NCCCc2cccnc2)ccc(C(C)=O)c1O [Example 9, 6-(4-Acetyl-3-hydroxy-2-propylphenoxy)-N-[3-(3-pyridinyl)propyl]hexanamide]

IC50 (SRS-A; standard SRS-A antagonist, read-out: IC50, SRS-A induced constriction of the guinea pig ileum): 35 nM
SMILES: CCCc1c(OCC(O)COc2ccc3c(=O)cc(C(=O)O)oc3c2CCC)ccc(C(C)=O)c1O (stereo not drawn) [7-[3-(4-acetyl-3-hydroxy-2-propylphenoxy)-2-hydroxypropoxy]-4-oxo-8-propyl-4H-1-benzopyran-2-carboxylic acid, reference compound]

IC50 (PAF [1]; Table I): 500 nM | inhibition at 1 µM (TXA2 synthase; [5]): 35%
SMILES: CCCc1c(OCCCCCC(=O)NCCc2cccnc2)ccc(C(C)=O)c1O [Example 10, 6-(4-Acetyl-3-hydroxy-2-propylphenoxy)-N-[2-(3-pyridinyl)ethyl]hexanamide]

IC50 (PAF [1]; Table III): 900 nM | inhibition at 1 µM (TXA2 synthase; [6]): 89%
SMILES: CCCc1c(OCCCCCNC(=O)NCCCCc2cccnc2)ccc(C(C)=O)c1O [Example 29, N-[5-(4-Acetyl-3-hydroxy-2-propylphenoxy)-pentyl]-N'-[4-(3-pyridinyl)butyl]urea]
inhibition of PAF-induced bronchoconstriction (PAF [2]): 68±10%

IC50 (PAF [1]; Table I): 250 nM | inhibition at 1 µM (TXA2 synthase; [5]): 89% | inhibition at 1 µM (TXA2 synthase; [6]): 89% | IC50 (SRS-A; Table I, read-out: SRS-A Antagonism IC50): 5000 nM
SMILES: CCCc1c(OCCCC(=O)NCCCCc2cccnc2)ccc(C(C)=O)c1O [Example 5, 4-(4-Acetyl-3-hydroxy-2-propylphenoxy)-N-[4-(3-pyridinyl)butyl]butanamide]
inhibition of PAF-induced bronchoconstriction (PAF [2]): 64±12%
